Laboratory results published in ChEMBL document CHEMBL1201862, “PubChem BioAssay data set” (2004).
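Step 1: Grow cells in 96-well plates. Step 2: Expose to compound for 48 hours at 5 concentrations. Step 3: Interpolate endpoints linearly; if unreached, use highest concentration. The concentration for 50% growth inhibition is given as GI50.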 The source made the active and inactive calls. No stated cut-off is given here; in the data, active = GI50 up to about 1.1 µM and inactive = higher.

How the values were obtained:
Experiment in all cases: NCI tumour cell line growth inhibition, 48 h
SK-OV-3 = system: SK-OV-3
HOP-92 = system: HOP-92
SR = system: SR
U-251 = system: U-251
HCT-116 = system: HCT-116
EKVX = system: EKVX
CAKI-1 = system: CAKI-1
SF-539 = system: SF-539
SK-MEL-28 = system: SK-MEL-28
K562 = system: K562
SNB-75 = system: SNB-75
MOLT-4 = system: MOLT-4
NCI-H23 = system: NCI-H23
M19-MEL = system: M19-MEL
MDA-N = system: MDA-N
BT-549 = system: BT-549
T47D = system: T47D
NCI/ADR-RES = system: NCI/ADR-RES
PC-3 = system: PC-3
MDA-MB-231 = system: MDA-MB-231

Row | Structure (SMILES) | GI50 (SK-OV-3) | GI50 (HOP-92) | GI50 (SR) | GI50 (U-251) | GI50 (HCT-116) | GI50 (EKVX) | GI50 (CAKI-1) | GI50 (SF-539) | GI50 (SK-MEL-28) | GI50 (K562) | GI50 (SNB-75) | GI50 (MOLT-4) | GI50 (NCI-H23) | GI50 (M19-MEL) | GI50 (MDA-N) | GI50 (BT-549) | GI50 (T47D) | GI50 (NCI/ADR-RES) | GI50 (PC-3) | GI50 (MDA-MB-231)
1 | CC1=C(/C=C/C(C)=C/C=C/C(C)=C/C=C/C=C(C)/C=C/C=C(C)/C=C/C2=C(C)C(=O)C(O)CC2(C)C)C(C)(C)CC(O)C1=O (stereo not given) | > 100 µM (inactive) | > 100 µM (inactive) | > 100 µM (inactive) | > 100 µM (inactive) | > 100 µM (inactive) | > 100 µM (inactive) | > 100 µM (inactive) | > 100 µM (inactive) | > 100 µM (inactive) | > 100 µM (inactive) | > 100 µM (inactive) | > 100 µM (inactive) | > 100 µM (inactive) | > 100 µM (inactive) | – | – | – | – | – | –
2 | CCC(=O)OC1CCn2c1nc1c2C(=O)C(C)=C(N2CC2)C1=O (stereo not given) | 0.103 µM (active) | 1.53 µM (inactive) | – | 0.0371 µM (active) | 0.0935 µM (active) | 0.224 µM (active) | 0.0509 µM (active) | 0.143 µM (active) | 0.0791 µM (active) | – | 0.0301 µM (active) | 3.41 µM (inactive) | < 0.0423 µM (active) | 0.146 µM (active) | 0.043 µM (active) | 0.0546 µM (active) | 1.6 µM (inactive) | 48 nM (active) | 0.105 µM (active) | 1.42 µM (inactive)
3 | C=C1COC(O)(C2OCOC(C3CC(=O)NC(=O)C3)C2O)C1C (stereo not given) | 0.00384 µM (active) | 0.00244 µM (active) | 0.00213 µM (active) | 0.00341 µM (active) | 0.00348 µM (active) | 0.00689 µM (active) | 0.00468 µM (active) | 0.00185 µM (active) | 0.00573 µM (active) | 0.00316 µM (active) | 0.00494 µM (active) | 0.0011 µM (active) | 0.00381 µM (active) | 0.00156 µM (active) | 0.0034 µM (active) | 0.00565 µM (active) | 0.00146 µM (active) | 17 nM (active) | 0.0031 µM (active) | 0.00847 µM (active)
4 | N#CCCN(CCC#N)c1ccc(/C=N\c2ccc(F)cc2)cc1 | > 100 µM (inactive) | > 100 µM (inactive) | 58.9 µM (inactive) | > 100 µM (inactive) | 6.97 µM (inactive) | > 100 µM (inactive) | > 68.5 µM (inactive) | 15.2 µM (inactive) | > 48.5 µM (inactive) | 0.137 µM (active) | 73.6 µM (inactive) | > 19.8 µM (inactive) | > 100 µM (inactive) | 1.63 µM (inactive) | 71.3 µM (inactive) | > 100 µM (inactive) | > 100 µM (inactive) | – | 75.3 µM (inactive) | > 100 µM (inactive)
5 | CCOc1ccc(/N=C/c2ccnc3ccccc23)cc1 | 67.8 µM (inactive) | 49.8 µM (inactive) | 0.752 µM (active) | 32.7 µM (inactive) | 0.912 µM (active) | > 93.1 µM (inactive) | 74.3 µM (inactive) | 26.5 µM (inactive) | 50.1 µM (inactive) | 3.11 µM (inactive) | 29.2 µM (inactive) | 5.9 µM (inactive) | 49.3 µM (inactive) | > 71.1 µM (inactive) | 30.1 µM (inactive) | 34.4 µM (inactive) | 47.9 µM (inactive) | 35900 nM (inactive) | 31.5 µM (inactive) | 20.7 µM (inactive)
6 | CCC1(O)C(=O)OCc2c1cc1n(c2=O)Cc2cc3ccc(C=O)cc3nc2-1 (stereo not given) | 2.2 µM (inactive) | 11.1 µM (inactive) | < 0.013 µM (active) | 0.637 µM (active) | 1.34 µM (inactive) | 19.1 µM (inactive) | 1.73 µM (inactive) | 0.551 µM (active) | 27.1 µM (inactive) | 1.91 µM (inactive) | 1.36 µM (inactive) | 0.132 µM (active) | 2.07 µM (inactive) | 2.89 µM (inactive) | 5.56 µM (inactive) | 2.28 µM (inactive) | 0.655 µM (active) | 574 nM (active) | 5.53 µM (inactive) | 22.4 µM (inactive)
7 | C[C@@]12CCC(=O)c3coc(c31)C(=O)c1cc3c(cc12)C(=O)C=CC3=O [HELENAQUINONE] | > 100 µM (inactive) | 6.93 µM (inactive) | 30.1 µM (inactive) | 23.7 µM (inactive) | 15.4 µM (inactive) | 23.6 µM (inactive) | 21.1 µM (inactive) | 17.6 µM (inactive) | 16.3 µM (inactive) | > 22.2 µM (inactive) | 20.9 µM (inactive) | 14.3 µM (inactive) | 12.5 µM (inactive) | 6.05 µM (inactive) | – | – | – | – | – | –
